Measurements as given in PubChem BioAssay AID2060906 (Molecular Pharmacology Branch, DTP, NCI, 2025).

Test system: 485176-168-R4-J1-PDC complex spheroid growth
Assay: Anticancer human tumor 485176-168-R4-J1-PDC patient-derived pancreatic adenocarcinoma cell line growth inhibition [RAS]
Conditions: for IC50: curve of first compound; for viability, T/C: stronger effect = lower value
Description: RAS pathway inhibitors in Combinations in Complex Spheroids
A high-throughput screen of multi-cell type tumor spheroids was designed to identify active combinations of RAS pathway inhibitors and targeted small molecules. Complex spheroids include a stromal component modeled by human endothelial cells (HUVEC) and fibroblasts modeled by human mesenchymal stem cells (MSCs). The concentration ranges selected for each drug and investigational agent were based upon clinically achievable concentrations if the clinical Cmax of the agent was known.
Compounds. The drugs and investigational agents: abemaciclib (NSC768073), cobimetinib (NSC768068), divarasib (GDC6063, NSC841802), docetaxel (NSC628503), GDC-1971 (RLY-1971, NSC841576), gemcitabine (NSC613327), inavolisib (NSC800729), ipatasertib (NSC767898), KB-0742 (NSC834161), MRTX-1133 (NSC836407), osimertinib (NSC779217), RMC-4630 (NSC839698), RMC-6236 (NSC851965), RMC-6291 (NSC852671), Ro-3306 (NSC812927), sapanisertib (NSC764658), SN-38 (NSC673596), staurosporine (NSC755774), SY5609 (NSC837396), and tovorafenib (DAY101, NSC766906), were obtained from the National Cancer Institute (NCI) Developmental Therapeutics Program Chemical Repository. The FDA-approved anticancer drug set is available from the NCI Developmental Therapeutics Program. […] The stock solutions were prepared in dimethyl sulfoxide (DMSO, Sigma-Aldrich, St. Louis, MO, cat. D2650) at 800-fold the tested concentration and stored at -70 degrees C prior to their use. All drugs and investigational agents were tested over a range starting from a high concentration at or near the clinical Cmax and decreasing in half-log increments. If the clinical Cmax for an agent had not been determined, the highest concentration tested was 10 microM.
Cell Culture. All cells were maintained in an incubator at 37 degrees C and 5% CO2 with 95% humidity. The PDC lines were cultured according to standard operating procedures established by the NCI PDMR. All PDCs were thawed and cultured in Matrigel-coated flasks prepared with a working solution of 1X Ham's F-12 nutrient mix, without supplementation (Invitrogen, Waltham, MA, cat. 11765054), 100 U/mL penicillin-streptomycin (Invitrogen, cat. 15140122), and 2.5% Matrigel (Corning Inc., Corning, NY, cat. 354248) for the first three passages. The 362531-283-R-J2-PDC and 782815-120-R-J1-PDC lines were cultured in 6C/Colon 1B media, which includes advanced DMEM/F-12 (Thermo Fisher Scientific, cat. 12634028), 10 mM HEPES (Thermo Fisher Scientific, cat. 15630080), 1X GlutaMAX supplement (Thermo Fisher Scientific, cat. 35050061), 0.1 mg/mL primocin (InvivoGen, San Diego, CA, cat. ant-pm-2), 10% defined fetal bovine serum, heat inactivated (HyClone Laboratories Inc., Logan, UT, cat. SH30070.03HI), 50% L-WRN conditioned media (ATCC, cat. CRL-3276), 1.25 mM N-Acetyl-L-cysteine (Sigma-Aldrich, cat. A9165), 10 mM nicotinamide (Sigma-Aldrich, cat. N0636), 1X B-27 supplement (Thermo Fisher Scientific, cat. 17504044), 1X N-2 supplement (Thermo Fisher Scientific, cat. 17502048), 50 ng/mL human EGF (Thermo Fisher Scientific, cat. PHG0311), and 10 microM Y-27632 dihydrochloride (Tocris Bioscience, cat. 1254). The K12877-001-R-J1-PDC line was cultured in 6I media, which includes all 6C/Colon 1B media plus 10 ng/mL human FGF-10 (PeproTech, cat. 100-26), 1 ng/mL human FGF-2 (PeproTech, cat. 100-18B), 1 µM prostaglandin E2 (Tocris Bioscience, cat. 2296), […] hydrocortisone (Sigma-Aldrich, cat. H4001), and […] bovine insulin (Sigma-Aldrich, cat. I6634). The K86415-001-R-J1-PDC line was cultured in 6D media, which includes all 6C/Colon 1B media components minus the L-WRN conditioned media. The 485176-168-R4-J1-PDC was cultured in PANC media, which includes all 6C/Colon 1B media plus 100 ng/mL human FGF-10 (PeproTech, cat. 100-26), 500 nM SB-431542 (Selleckchem, cat. S1067), and 10 nM gastrin (Tocris Bioscience, cat. 3006). […]

[1] = second compound 0.0316 µM, first compound 0.0316 µM
[2] = second compound 0.0316 µM, first compound 0.1 µM
[3] = second compound 0.0316 µM, first compound 0.316 µM
[4] = second compound 0.0316 µM, first compound 1 µM
[5] = second compound 0.0316 µM, first compound 3.16 µM
[6] = second compound 0.0316 µM, first compound 10 µM
[7] = second compound 0.1 µM, first compound 0.0316 µM
[8] = second compound 0.1 µM, first compound 0.1 µM
[9] = second compound 0.1 µM, first compound 0.316 µM
[10] = second compound 0.1 µM, first compound 1 µM
[11] = second compound 0.1 µM, first compound 3.16 µM
[12] = second compound 0.1 µM, first compound 10 µM
[13] = second compound 0.316 µM, first compound 0.0316 µM
[14] = second compound 0.316 µM, first compound 0.1 µM
[15] = second compound 0.316 µM, first compound 0.316 µM
[16] = second compound 0.316 µM, first compound 1 µM
[17] = second compound 0.316 µM, first compound 3.16 µM
[18] = second compound 0.316 µM, first compound 10 µM
[19] = second compound 1 µM, first compound 0.0316 µM
[20] = second compound 1 µM, first compound 0.1 µM
[21] = second compound 1 µM, first compound 0.316 µM
[22] = second compound 1 µM, first compound 1 µM
[23] = second compound 1 µM, first compound 3.16 µM
[24] = second compound 1 µM, first compound 10 µM
[25] = second compound 3.16 µM, first compound 0.0316 µM
[26] = second compound 3.16 µM, first compound 0.1 µM
[27] = second compound 3.16 µM, first compound 0.316 µM
[28] = second compound 3.16 µM, first compound 1 µM
[29] = second compound 3.16 µM, first compound 3.16 µM
[30] = second compound 3.16 µM, first compound 10 µM
[31] = second compound 10 µM, first compound 0.0316 µM
[32] = second compound 10 µM, first compound 0.1 µM
[33] = second compound 10 µM, first compound 0.316 µM
[34] = second compound 10 µM, first compound 1 µM
[35] = second compound 10 µM, first compound 3.16 µM
[36] = second compound 10 µM, first compound 10 µM
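Further: spheroids exposed to compounds for seven days before readout.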
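Wherever viability, T/C is given: luminescence viability expressed relative to DMSO vehicle wells set as 100%.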

Work on `CCC(CC)c1cc(NC2CCC(N)C2)n2nccc2n1` (stereo unspecified) + C#Cc1c(F)ccc2cc(O)cc(-c3ncc4c(N5CC6CCC(C5)N6)nc(OCC56CCCN5CC(F)C6)nc4c3F)c12 yielded an IC50 (second compound 0.0316 µM) of 1.36 µM, an IC50 (second compound 0.1 µM) of 1.48 µM and an IC50 (second compound 0.316 µM) of 1.61 µM. For the same compound, the IC50 (second compound 1 µM) was 1.61 µM, the IC50 (second compound 3.16 µM) was 1.5 µM and the IC50 (second compound 10 µM) was 1.46 µM. For the same compound, the viability, T/C [1] was 115%, the viability, T/C [2] was 80.2% and the viability, T/C [3] was 102%. For the same compound, the viability, T/C [4] was 67.5%, the viability, T/C [5] was 2.68% and the viability, T/C [6] was 0.57%. For the same compound, the viability, T/C [7] was 105%, the viability, T/C [8] was 106% and the viability, T/C [9] was 95.3%. It also gave a viability, T/C [10] of 74.5%, a viability, T/C [11] of 3.04% and a viability, T/C [12] of 0.56%. It also gave a viability, T/C [13] of 85.5%, a viability, T/C [14] of 103% and a viability, T/C [15] of 94.1%. It also gave a viability, T/C [16] of 83.5%, a viability, T/C [17] of 2.75% and a viability, T/C [18] of 0.5%. The viability, T/C [19] was 113%, the viability, T/C [20] was 89.7% and the viability, T/C [21] was 92%. It also gave a viability, T/C [22] of 83.1%, a viability, T/C [23] of 2.71% and a viability, T/C [24] of 0.44%. The viability, T/C [25] was 103%, the viability, T/C [26] was 90.3% and the viability, T/C [27] was 97%. The viability, T/C [28] was 75.2%, the viability, T/C [29] was 3.48% and the viability, T/C [30] was 0.51%. The viability, T/C [31] was 93.3%, the viability, T/C [32] was 96.3% and the viability, T/C [33] was 79%. It also gave a viability, T/C [34] of 73%, a viability, T/C [35] of 2.33% and a viability, T/C [36] of 0.39%.

For `Cc1nc(N2CCC3(CC2)COC(C)C3N)c(CO)nc1Sc1ccnc(N)c1Cl` (stereo unspecified) + C#Cc1c(F)ccc2cc(O)cc(-c3ncc4c(N5CC6CCC(C5)N6)nc(OCC56CCCN5CC(F)C6)nc4c3F)c12, the IC50 (second compound 0.0316 µM) was greater than 10 µM, the IC50 (second compound 0.1 µM) was greater than 10 µM and the IC50 (second compound 0.316 µM) was greater than 10 µM. For the same compound, the IC50 (second compound 1 µM) was greater than 10 µM, the IC50 (second compound 3.16 µM) was greater than 10 µM and the IC50 (second compound 10 µM) was greater than 10 µM. The viability, T/C [1] was 111%, the viability, T/C [2] was 89.3% and the viability, T/C [3] was 79.5%. For the same compound, the viability, T/C [4] was 82.5%, the viability, T/C [5] was 88.5% and the viability, T/C [6] was 73.4%. The viability, T/C [7] was 91.6%, the viability, T/C [8] was 99.6% and the viability, T/C [9] was 83.4%. For the same compound, the viability, T/C [10] was 84.4%, the viability, T/C [11] was 85.6% and the viability, T/C [12] was 83%. It also gave a viability, T/C [13] of 83%, a viability, T/C [14] of 85.4% and a viability, T/C [15] of 86.7%. The viability, T/C [16] was 70.6%, the viability, T/C [17] was 81.8% and the viability, T/C [18] was 77.3%. The viability, T/C [19] was 85.5%, the viability, T/C [20] was 102% and the viability, T/C [21] was 71.4%. For the same compound, the viability, T/C [22] was 75.3%, the viability, T/C [23] was 77.7% and the viability, T/C [24] was 70.8%. The viability, T/C [25] was 92.6%, the viability, T/C [26] was 98.1% and the viability, T/C [27] was 96.2%. It also gave a viability, T/C [28] of 75.9%, a viability, T/C [29] of 86.5% and a viability, T/C [30] of 64.1%. The viability, T/C [31] was 80.4%, the viability, T/C [32] was 87.4% and the viability, T/C [33] was 87%. For the same compound, the viability, T/C [34] was 82.1%, the viability, T/C [35] was 80% and the viability, T/C [36] was 86.6%.

`NC1c2ccccc2OC12CCN(c1cnc3c(N4CCCc5ncccc54)n[nH]c3n1)CC2` (stereo unspecified) + C#Cc1c(F)ccc2cc(O)cc(-c3ncc4c(N5CC6CCC(C5)N6)nc(OCC56CCCN5CC(F)C6)nc4c3F)c12 was tested, and the IC50 (second compound 0.0316 µM) was greater than 10 µM, the IC50 (second compound 0.1 µM) was greater than 10 µM and the IC50 (second compound 0.316 µM) was greater than 10 µM. The IC50 (second compound 1 µM) was greater than 10 µM, the IC50 (second compound 3.16 µM) was greater than 10 µM and the IC50 (second compound 10 µM) was greater than 10 µM. The viability, T/C [1] was 77%, the viability, T/C [2] was 79.1% and the viability, T/C [3] was 78.5%. It also gave a viability, T/C [4] of 77.6%, a viability, T/C [5] of 75.3% and a viability, T/C [6] of 62.4%. For the same compound, the viability, T/C [7] was 83%, the viability, T/C [8] was 82.9% and the viability, T/C [9] was 78.7%. For the same compound, the viability, T/C [10] was 76.2%, the viability, T/C [11] was 90.1% and the viability, T/C [12] was 62.5%. It also gave a viability, T/C [13] of 78.4%, a viability, T/C [14] of 82.8% and a viability, T/C [15] of 73.9%. It also gave a viability, T/C [16] of 72.6%, a viability, T/C [17] of 79.3% and a viability, T/C [18] of 58.8%. The viability, T/C [19] was 78.6%, the viability, T/C [20] was 74% and the viability, T/C [21] was 85.5%. It also gave a viability, T/C [22] of 80.6%, a viability, T/C [23] of 87.8% and a viability, T/C [24] of 70%. The viability, T/C [25] was 79.8%, the viability, T/C [26] was 68.9% and the viability, T/C [27] was 64.5%. The viability, T/C [28] was 82.8%, the viability, T/C [29] was 80.5% and the viability, T/C [30] was 61.3%. For the same compound, the viability, T/C [31] was 91.4%, the viability, T/C [32] was 79.2% and the viability, T/C [33] was 68.8%. It also gave a viability, T/C [34] of 67.2%, a viability, T/C [35] of 91.1% and a viability, T/C [36] of 64.5%.
